Data published in publication PMC12543283, “TastepepAI: An artificial intelligence platform for taste peptide de novo design” (PLOS Computational Biology, 2025).
Ends that are not written are not given here.

How the values were obtained:
[1] = system: human umbilical vein endothelial cells (HUVEC)
[2] = system: human bronchial epithelial cells (BEAS-2B)
Procedure: The cytotoxicity of 73 synthetic peptides was evaluated using four human cell lines: human pancreatic ductal epithelial cells (HPNE), human embryonic kidney cells (HEK293T), human umbilical vein endothelial cells (HUVEC), and human bronchial epithelial cells (BEAS-2B). When cell density reached 70% confluence, the complete culture medium was replaced with serum-free maintenance medium, and peptides were added at a final concentration of 100 μM for 36 h. Control groups received only serum-free maintenance medium without peptides. Cell proliferation was assessed using the CCK-8 assay kit (Solarbio, CA1210) according to the manufacturer’s instructions.

[3] = system: human pancreatic ductal epithelial cells (HPNE)
[4] = Electronic tongue analysis (Taste-Sensing System SA 402B); set-up: unit not given here; conditions: reference solution 30 mM KCl + 0.3 mM tartaric acid as baseline, first measurement excluded; for Umami: sensor AAE; for Umami / Bitter / Sweet: detection threshold 0, room temperature; for Umami / Bitter / Sour / Salty: four replicates; for Sour: detection threshold -13, room temperature; for Salty: detection threshold -6, room temperature; for Sweet: measured five times
Procedure, shortened: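 Room-temperature electronic-tongue readings with five taste probes, calibrated against a reference of 30 mM KCl and 0.3 mM tartaric acid. Samples at 0.1 mg/mL and 1.0 mg/mL were measured four times, sweetness five times, and the first run was dropped. Detection cut-offs were sour −13, salty −6, others 0.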

[5] = system: human embryonic kidney cells (HEK293T)

Row | Substance | Average cell viability, HUVEC [1] | Cell viability, HUVEC, Data1 [1] | Cell viability, HUVEC, Data2 [1] | Cell viability, HUVEC, Data3 [1] | Average cell viability, BEAS-2B [2] | Cell viability, BEAS-2B, Data1 [2] | Cell viability, BEAS-2B, Data2 [2] | Cell viability, BEAS-2B, Data3 [2] | Average cell viability, HPNE [3] | Cell viability, HPNE, Data1 [3] | Cell viability, HPNE, Data2 [3] | Cell viability, HPNE, Data3 [3] | Umami ([4]; peptide 0.1 mg/mL) | Umami ([4]; peptide 1 mg/mL) | Bitter ([4]; sensor C00, peptide 0.1 mg/mL) | Bitter ([4]; sensor C00, peptide 1 mg/mL) | Sour ([4]; sensor CA0, peptide 0.1 mg/mL) | Sour ([4]; sensor CA0, peptide 1 mg/mL) | Salty ([4]; sensor CT0, peptide 0.1 mg/mL) | Salty ([4]; sensor CT0, peptide 1 mg/mL) | other results
1 | SVLEFS [TaPep52] | 102.10 | 102.10 | 88.93 | 115.27 | 105.65 | 105.38 | 103.19 | 108.37 | 109.12 | 112.31 | 112.11 | 102.93 | 2.84 | -2.08 | 7.49 | 4.10 | -6.24 | 5.72 | -20.56 | 3.13 | Sweet ([4]; sensor GL1, peptide 0.1 mg/mL): 9.54; Sweet ([4]; sensor GL1, peptide 1 mg/mL): -1.51; Average cell viability, HEK293T [5]: 99.31; Cell viability, HEK293T, Data1 [5]: 102.87; Cell viability, HEK293T, Data2 [5]: 97.95; Cell viability, HEK293T, Data3 [5]: 97.10
2 | TAEQVA [TaPep33] | 104.47 | 106.25 | 114.32 | 92.84 | 98.57 | 90.33 | 99.90 | 105.48 | 106.02 | 118.30 | 86.46 | 113.31 | 1.93 | -0.93 | 7.77 | 3.28 | -4.09 | 10.86 | -19.69 | 10.92 | Sweet ([4]; sensor GL1, peptide 0.1 mg/mL): 8.49; Sweet ([4]; sensor GL1, peptide 1 mg/mL): -5.32; Average cell viability, HEK293T [5]: 102.24; Cell viability, HEK293T, Data1 [5]: 97.67; Cell viability, HEK293T, Data2 [5]: 105.05; Cell viability, HEK293T, Data3 [5]: 104.01
3 | TDPELV [TaPep60] | 102.29 | 91.72 | 106.41 | 108.73 | 110.77 | 105.88 | 117.95 | 108.47 | 111.81 | 114.61 | 113.81 | 107.02 | 1.33 | -5.30 | 7.64 | 3.00 | -2.65 | 12.51 | -20.71 | 9.00 | Sweet ([4]; sensor GL1, peptide 0.1 mg/mL): 5.70; Sweet ([4]; sensor GL1, peptide 1 mg/mL): -9.69; Average cell viability, HEK293T [5]: 103.06; Cell viability, HEK293T, Data1 [5]: 105.62; Cell viability, HEK293T, Data2 [5]: 98.99; Cell viability, HEK293T, Data3 [5]: 104.57
4 | TIDDELR [TaPep26] | 104.87 | 103.54 | 102.74 | 108.33 | 102.16 | 95.61 | 106.68 | 104.19 | 94.58 | 84.76 | 94.94 | 104.03 | 1.71 | -4.35 | 7.26 | 3.16 | -3.53 | 10.93 | -21.44 | 8.38 | Sweet ([4]; sensor GL1, peptide 0.1 mg/mL): 5.51; Sweet ([4]; sensor GL1, peptide 1 mg/mL): -3.99; Average cell viability, HEK293T [5]: 99.46; Cell viability, HEK293T, Data1 [5]: 96.81; Cell viability, HEK293T, Data2 [5]: 98.23; Cell viability, HEK293T, Data3 [5]: 103.34
5 | TPRKQ [TaPep37] | 107.80 | 111.04 | 111.52 | 100.82 | 100.23 | 95.41 | 110.47 | 94.82 | 94.98 | 108.02 | 84.26 | 92.65 | 1.93 | -5.88 | 7.34 | 3.28 | -4.03 | 12.49 | -13.82 | 15.18 | Sweet ([4]; sensor GL1, peptide 0.1 mg/mL): 4.01; Sweet ([4]; sensor GL1, peptide 1 mg/mL): -5.26; Average cell viability, HEK293T [5]: 100.47; Cell viability, HEK293T, Data1 [5]: 100.50; Cell viability, HEK293T, Data2 [5]: 96.44; Cell viability, HEK293T, Data3 [5]: 104.48
6 | TQEVVN [TaPep25] | 92.52 | 90.21 | 89.33 | 98.03 | 110.07 | 118.34 | 103.39 | 108.47 | 92.98 | 92.95 | 81.96 | 104.03 | 1.53 | -3.13 | 7.01 | 3.50 | -6.12 | 7.84 | -23.02 | 5.51 | Sweet ([4]; sensor GL1, peptide 0.1 mg/mL): 8.12; Sweet ([4]; sensor GL1, peptide 1 mg/mL): -3.53; Average cell viability, HEK293T [5]: 100.16; Cell viability, HEK293T, Data1 [5]: 103.15; Cell viability, HEK293T, Data2 [5]: 98.42; Cell viability, HEK293T, Data3 [5]: 98.90
7 | VAEDLL [TaPep8] | 103.81 | 109.13 | 93.96 | 108.33 | 103.39 | 114.76 | 90.53 | 104.89 | 106.12 | 109.62 | 99.23 | 109.52 | 2.66 | -4.08 | 7.50 | 1.63 | -5.63 | 8.25 | -22.00 | 7.96 | Sweet ([4]; sensor GL1, peptide 0.1 mg/mL): 9.31; Sweet ([4]; sensor GL1, peptide 1 mg/mL): -4.65; Average cell viability, HEK293T [5]: 101.07; Cell viability, HEK293T, Data1 [5]: 102.68; Cell viability, HEK293T, Data2 [5]: 95.30; Cell viability, HEK293T, Data3 [5]: 105.24
8 | VARLEA [TaPep9] | 96.43 | 97.15 | 102.50 | 89.65 | 112.30 | 110.77 | 115.45 | 110.67 | 104.39 | 117.30 | 93.74 | 102.13 | 2.67 | -2.73 | 7.95 | 2.75 | -6.31 | 8.17 | -18.92 | 12.49 | Sweet ([4]; sensor GL1, peptide 0.1 mg/mL): 8.92; Sweet ([4]; sensor GL1, peptide 1 mg/mL): -4.48; Average cell viability, HEK293T [5]: 105.62; Cell viability, HEK293T, Data1 [5]: 103.06; Cell viability, HEK293T, Data2 [5]: 112.15; Cell viability, HEK293T, Data3 [5]: 101.64
9 | VEKVE [TaPep67] | 100.75 | 112.48 | 97.95 | 91.80 | 110.54 | 94.32 | 118.94 | 118.34 | 96.14 | 105.92 | 99.23 | 83.26 | 1.99 | -4.10 | 7.39 | 4.01 | -4.19 | 10.40 | -19.59 | 9.82 | Sweet ([4]; sensor GL1, peptide 0.1 mg/mL): 6.41; Sweet ([4]; sensor GL1, peptide 1 mg/mL): -3.54; Average cell viability, HEK293T [5]: 100.22; Cell viability, HEK293T, Data1 [5]: 99.37; Cell viability, HEK293T, Data2 [5]: 105.99; Cell viability, HEK293T, Data3 [5]: 95.30
